These results are taken from PubChem BioAssay (NCI).

Test systems include DLD-1 colon; DMS 114 small cell lung; DMS 273 small cell lung; KM20L2 colon; LXFL 529 NSCLC; M19-MEL melanoma; RXF-631 renal; SNB-78 CNS; BT-549 breast; DU-145 prostate; NCI/ADR-RES ovarian.
Assay in all cases: growth of human tumour cells (NCI), 48 h

The structures appear in SMILES notation. Several values for one entry are separate records, joined by “and”; a condition that tells them apart may be missing. Identical values can stand only once.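 Following 48 hours of exposure in 96-well plates, responses at five concentrations were used to interpolate endpoints linearly. GI50 marks 50% less growth. The concentration for full growth arrest is given as TGI.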 Bounds are passed on as bounds.

Regarding `CC1=C2C3OC(=O)C(C)C3C(O)C[C@@]2(C)C(=O)CC1` (stereo partly drawn), the TGI with DLD-1 colon, in the assay with DMS 114 small cell lung, with DMS 273 small cell lung, in the assay on KM20L2 colon, in the assay with LXFL 529 NSCLC and in the assay with M19-MEL melanoma was greater than 100 µM in each case. The TGI with RXF-631 renal and in the assay on SNB-78 CNS was greater than 100 µM throughout.

Consider `COC(=O)Nc1nc2ccc(C(=O)c3cccs3)cc2[nH]1`, for which the TGI with BT-549 breast is 4.33 µM; in the assay on DLD-1 colon, greater than 100 µM; in the assay on DMS 114 small cell lung, greater than 100 µM; with DMS 273 small cell lung, greater than 100 µM; with DU-145 prostate, 1.5 µM; in the assay with KM20L2 colon, 0.0377 µM. For the same compound, the TGI is 18.6 µM in the assay on LXFL 529 NSCLC; greater than 100 µM in the assay on M19-MEL melanoma; greater than 100 µM with NCI/ADR-RES ovarian; greater than 61.8 µM in the assay with RXF-631 renal; greater than 63.1 µM with SNB-78 CNS. The GI50 in the assay on NCI/ADR-RES ovarian is 0.0388 µM and 0.0664 µM.

Regarding `O/N=C1\C(=C\c2ccc3c(c2)OCCO3)CCCC1C(NO)c1ccc2c(c1)OCCO2` (stereo not drawn), the TGI was greater than 100 µM in the assay with DLD-1 colon; 44.6 µM with DMS 114 small cell lung; 43 µM with DMS 273 small cell lung; 35.6 µM in the assay with KM20L2 colon; 62.7 µM in the assay on LXFL 529 NSCLC; 52.5 µM in the assay with M19-MEL melanoma. Also, the TGI with RXF-631 renal and in the assay with SNB-78 CNS was greater than 100 µM throughout.

Consider `CC1OC(=O)N2CCC=CC12` (stereo not drawn), for which the TGI with DLD-1 colon, in the assay with DMS 114 small cell lung, in the assay on DMS 273 small cell lung, with KM20L2 colon, in the assay with LXFL 529 NSCLC and with M19-MEL melanoma was greater than 100 µM throughout. Also, the TGI in the assay with RXF-631 renal and with SNB-78 CNS was greater than 100 µM each time.

Take `COC(=O)C(/C(=N\O)C(=O)Nc1ccc(Br)cc1)c1nc2ccccc2[nH]c1=O` (stereo not drawn): the TGI with DLD-1 colon is greater than 100 µM; in the assay with DMS 114 small cell lung, 41.2 µM; with DMS 273 small cell lung, greater than 100 µM; with KM20L2 colon, greater than 100 µM; with LXFL 529 NSCLC it was 80.5 µM; in the assay on M19-MEL melanoma, 68.2 µM. Moreover, the TGI in the assay with RXF-631 renal and with SNB-78 CNS was greater than 100 µM throughout.

Regarding `CCOC(=O)CC(C)C1(C=O)CCCCC1=O` (stereo not drawn), the TGI with DLD-1 colon is greater than 100 µM; in the assay with DMS 114 small cell lung, 41.6 µM; in the assay with DMS 273 small cell lung, greater than 100 µM; in the assay with KM20L2 colon, greater than 100 µM; in the assay on LXFL 529 NSCLC it was greater than 100 µM; in the assay with M19-MEL melanoma, greater than 100 µM. The TGI in the assay on RXF-631 renal and in the assay with SNB-78 CNS was greater than 100 µM in each case.

In the case of `COC(=O)C#CC(N)=O`, the TGI with DLD-1 colon was greater than 100 µM; in the assay with DMS 114 small cell lung it was greater than 100 µM; with DMS 273 small cell lung, greater than 100 µM; in the assay on KM20L2 colon, greater than 31.6 µM; in the assay on LXFL 529 NSCLC, greater than 100 µM; in the assay on M19-MEL melanoma, greater than 100 µM. In addition, the TGI in the assay with RXF-631 renal and with SNB-78 CNS was greater than 100 µM in each case.

In the case of `C#C[C@@H](CCCC)OC(=O)N[C@H](C)c1ccccc1`, the TGI in the assay with DLD-1 colon, in the assay on DMS 114 small cell lung, in the assay on DMS 273 small cell lung, in the assay with KM20L2 colon, in the assay on LXFL 529 NSCLC and in the assay with M19-MEL melanoma was greater than 100 µM each time. Moreover, the TGI with RXF-631 renal and in the assay with SNB-78 CNS was greater than 100 µM each time.
